{"source": "patent US20190365927A1", "about": "“COMPOSITION FOR PHOTODYNAMIC THERAPY USING GENE EXPRESSING FLUORESCENT PROTEIN AND PHOTOSENSITIZER, AND PHOTODYNAMIC THERAPY METHOD USING SAME” (priority 2017, published 2019)", "system": "GFP+ and GFP− NCI-H460 cells", "experiment": "In vitro fluorescence intensity measurement after blue light irradiation (FRET)", "type": "cell-based, human", "conditions": "RB 0, 5, 10, 50 uM, blue laser light 473 nm, FIG. 15", "protocol": "Fluorescent intensities of GFP− and GFP+ cells after blue light irradiation were measured in the presence or absence of RB. The specific experimental procedure is as follows.\n1×10^6 cells of GFP− and GFP+ NCI-H460 cell lines as produced by the method described in the 1-1 were cultured in a 75 cm^2 cell culture dish containing RPMI-1640 medium supplemented with 10% FBS. After 12 hours, the culture medium of the cell line was replaced with RPMI-1640 medium without FBS. Then, RBs of various concentrations (0 uM, 5 uM, 10 uM, 50 uM) were added thereto. The culturing was done for 4 hours to accumulate RB in the cells. Then, the cells were obtained by centrifugation. Pellets of each cell group were suspended in 1 ml PBS. Then, the cell was irradiated with blue laser light (473 nm, radiation dose rate=80 mW/cm^2). The light-emission spectrum of each cell group was measured using a spectrofluorometer (JASCO Inc.). Measurements in each group were repeated 5 times. The FRET efficiency was calculated by the following equation: […]\nF(DA): GFP fluorescence intensity in the presence of RB, and\nF(D): GFP fluorescence intensity in the absence of RB."}
{"smiles": "O=C1OC2(c3cc(I)c(O)c(I)c3Oc3c2cc(I)c(O)c3I)c2c(Cl)c(Cl)c(Cl)c(Cl)c21", "note": "[RB, rose bengal]", "values": [{"measurement": "emission intensity at 508 nm (emission peak of GFP)", "result": "decreases as the concentration of RB increases"}]}
